From US9670227B2, “Thienopyrimidine derivatives, a process for their preparation and pharmaceutical compositions containing them” (LES LABORATOIRES SERVIER, priority 2013, dated 2017)
Like-named read-outs stand apart in the source and are kept apart here.

Tests used:
Mcl-1 protein = Mcl-1 protein (UniProtKB primary accession number: Q07820) (Homo sapiens, UniProt Q07820); test: Inhibition of Mcl-1 by fluorescence polarisation, Method 1; assay type: binding; settings: read-out: IC50 (M) Mcl-1 FP
Summary of the method: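 Fluorescence polarisation competition with an 11-point compound dilution series (final DMSO 5%). Mcl-1 protein at 5 nM and fluorescein-labelled ligand at 1 nM (final) in 10 mM HEPES, 150 mM NaCl, 0.05% Tween 20, pH 7.4.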

[1] = test system: AMO-1 multiple myeloma cells; test: Quantification of the cleaved form of PARP in vivo (MSD ELISA, tumour lysates); set-up: species or system mice (SCID strain); settings: activation factor: cleaved PARP in treated mice / control mice, AMO-1 xenograft in SCID mice, intraveinous or oral routes
Procedure: The ability of the compounds of the invention to induce apoptosis, by measuring cleaved PARP levels, is evaluated in a xenograft model of AMO-1 multiple myeloma cells. 1.10^7 AMO-1 cells are grafted sub-cutaneously into immunosuppressed mice (SCID strain). 12 to 14 days after the graft, the animals are treated by intraveinous or oral routes with the various compounds. After treatment, the tumour masses are recovered and lysed, and the cleaved form of PARP is quantified in the tumour lysates.
The quantification is carried out using the “Meso Scale Discovery (MSD) ELISA platform” test, which specifically assays the cleaved form of PARP. It is expressed in the form of an activation factor corresponding to the ratio between the quantity of cleaved PARP in the treated mice divided by the quantity of cleaved PARP in the control mice.

[2] = test system: H929 multiple myeloma tumour line; test: In vitro cytotoxicity, Microculture Tetrazolium Assay; assay type: cell-based; settings: H929 cells, 48 hours exposure, MTT, read-out: IC50 (μM) MTT H929
Procedure: The cytotoxicity studies were carried out on the H929 multiple myeloma tumour line.
The cells are distributed onto microplates and exposed to the test compounds for 48 hours.

[3] = fluorescence polarisation test, Method 2 values are underlined in the patent (underlining not visible here)
[4] = fluorescence polarisation, Method 1, or Method 2

Chain of Mcl-1 protein (Q07820 whole entry): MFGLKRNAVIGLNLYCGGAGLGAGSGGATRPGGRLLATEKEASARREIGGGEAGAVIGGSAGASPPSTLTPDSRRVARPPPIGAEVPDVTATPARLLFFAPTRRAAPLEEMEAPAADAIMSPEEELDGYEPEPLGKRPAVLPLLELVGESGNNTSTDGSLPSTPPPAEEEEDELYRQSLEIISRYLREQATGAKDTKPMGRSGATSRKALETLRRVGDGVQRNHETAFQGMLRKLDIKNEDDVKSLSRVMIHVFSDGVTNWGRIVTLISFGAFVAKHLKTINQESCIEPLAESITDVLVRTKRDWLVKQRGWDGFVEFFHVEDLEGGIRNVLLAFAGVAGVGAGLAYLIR

COc1cc(COc2ccccc2CC(Oc2ncnc3sc(-c4ccc(F)o4)c(-c4ccc(OCCN5CCN(C)CC5)c(Cl)c4C)c23)C(=O)O)ccn1 [Example 168, (2R)-2-{[(5Sa)-5-{3-chloro-2-methyl-4-[2-(4-methylpiperazin-1-yl)ethoxy]phenyl}-6-(5-fluorofuran-2-yl)thieno[2,3-d]pyrimidin-4-yl]oxy}-3-{2-[(2-methoxypyridin-4-yl)methoxy]phenyl}propanoic acid]
IC50 (Mcl-1 protein; [3]): 2.8e-09 M | PARP fold [1]: 179.2 fold | IC50 ([2]; Homo sapiens, NCI-H929, 48 h): 0.025 µM

Cc1c(-c2c(-c3ccc(F)o3)sc3ncnc(OC(Cc4ccccc4OCc4ccnc(C5CC5)n4)C(=O)O)c23)ccc(OCCN2CCN(C)CC2)c1Cl [Example 170, (2R)-2-{[(5Sa)-5-{3-chloro-2-methyl-4-[2-(4-methylpiperazin-1-yl)ethoxy]phenyl}-6-(5-fluorofuran-2-yl)thieno[2,3-d]pyrimidin-4-yl]oxy}-3-{2-[(2-cyclopropylpyrimidin-4-yl)methoxy]phenyl}propanoic acid]
IC50 (Mcl-1 protein; [3]): 5.3e-09 M | PARP fold [1]: 144 fold | IC50 ([2]; Homo sapiens, NCI-H929, 48 h): 0.006 µM

Cc1c(-c2c(-c3ccc(F)o3)sc3ncnc(OC(Cc4ccccc4OCc4ccnc(-c5cccs5)n4)C(=O)O)c23)ccc(OCCN2CCN(C)CC2)c1Cl [Example 171, (2R)-2-{[(5Sa)-5-{3-chloro-2-methyl-4-[2-(4-methylpiperazin-1-yl)ethoxy]phenyl}-6-(5-fluorofuran-2-yl)thieno[2,3-d]pyrimidin-4-yl]oxy}-3-(2-{[2-(thiophen-2-yl)pyrimidin-4-yl]methoxy}phenyl)propanoic acid]
IC50 (Mcl-1 protein; [3]): 4.1e-09 M | PARP fold [1]: 207.4 fold | IC50 ([2]; Homo sapiens, NCI-H929, 48 h): 0.003 µM

CCOc1nccc(COc2ccccc2CC(Oc2ncnc3sc(-c4ccc(F)o4)c(-c4ccc(OCCN5CCN(C)CC5)c(Cl)c4C)c23)C(=O)O)n1 [Example 177, (2R)-2-{[(5Sa)-5-{3-chloro-2-methyl-4-[2-(4-methylpiperazin-1-yl)ethoxy]phenyl}-6-(5-fluorofuran-2-yl)thieno[2,3-d]pyrimidin-4-yl]oxy}-3-{2-[(2-ethoxypyrimidin-4-yl)methoxy]phenyl}propanoic acid]
IC50 (Mcl-1 protein; [3]): 2.8e-09 M | PARP fold [1]: 233.8 fold | IC50 ([2]; Homo sapiens, NCI-H929, 48 h): 0.005 µM

Cc1cnccc1-c1nccc(COc2ccccc2CC(Oc2ncnc3sc(-c4ccc(F)o4)c(-c4ccc(OCCN5CCN(C)CC5)c(Cl)c4C)c23)C(=O)O)n1 [Example 198, (2R)-2-{[(5Sa)-5-{3-chloro-2-methyl-4-[2-(4-methylpiperazin-1-yl)ethoxy]phenyl}-6-(5-fluorofuran-2-yl)thieno[2,3-d]pyrimidin-4-yl]oxy}-3-(2-{[2-(3-methylpyridin-4-yl)pyrimidin-4-yl]methoxy}phenyl)propanoic acid]
IC50 (Mcl-1 protein; [3]): 7.7e-09 M | PARP fold [1]: 280 fold | IC50 ([2]; Homo sapiens, NCI-H929, 48 h): 0.002 µM

Cc1c(-c2c(-c3ccc(F)o3)sc3ncnc(OC(Cc4ccccc4OCc4ccnc(N5CCOCC5)n4)C(=O)O)c23)ccc(OCCN(C)C)c1Cl [Example 202, (2R)-2-{[(5Sa)-5-{3-chloro-4-[2-(dimethylamino)ethoxy]-2-methylphenyl}-6-(5-fluorofuran-2-yl)thieno[2,3-d]pyrimidin-4-yl]oxy}-3-(2-{[2-(morpholin-4-yl)pyrimidin-4-yl]methoxy}phenyl)propanoic acid]
IC50 (Mcl-1 protein; [3]): 3.5e-09 M | PARP fold [1]: 153.8 fold | IC50 ([2]; Homo sapiens, NCI-H929, 48 h): 0.009 µM

Cc1c(-c2c(-c3ccco3)sc3ncnc(OC(Cc4ccccc4OCc4ccnc(OCC5CC5)n4)C(=O)O)c23)ccc(OCCN2CCN(C)CC2)c1Cl [Example 256, (2R)-2-{[(5Sa)-5-{3-chloro-2-methyl-4-[2-(4-methylpiperazin-1-yl)ethoxy]phenyl}-6-(furan-2-yl)thieno[2,3-d]pyrimidin-4-yl]oxy}-3-(2-{[2-(cyclopropylmethoxy)pyrimidin-4-yl]methoxy}phenyl)propanoic acid]
IC50 (Mcl-1 protein; [3]): 4.8e-09 M | PARP fold [1]: 125.1 fold | IC50 ([2]; Homo sapiens, NCI-H929, 48 h): 0.006 µM

COCCOc1ccccc1CC(Oc1ncnc2sc(-c3ccco3)c(-c3ccc(OCCN4CCN(C)CC4)c(Cl)c3C)c12)C(=O)O [Example 290, (2R)-2-{[(5Sa)-5-{3-chloro-2-methyl-4-[2-(4-methylpiperazin-1-yl)ethoxy]phenyl}-6-(furan-2-yl)thieno[2,3-d]pyrimidin-4-yl]oxy}-3-[2-(2-methoxyethoxy)phenyl]propanoic acid]
IC50 (Mcl-1 protein; [3]): 5.8e-09 M | PARP fold [1]: 121 fold | IC50 ([2]; Homo sapiens, NCI-H929, 48 h): 0.097 µM

CC#Cc1sc2ncnc(O[C@H](Cc3ccccc3OCc3ccnc(-c4ccncc4C)n3)C(=O)O)c2c1-c1ccc(OCCN2CCN(C)CC2)c(Cl)c1C [Example 483, (2R)-2-{[(5Sa)-5-{3-chloro-2-methyl-4-[2-(4-methylpiperazin-1-yl)ethoxy]phenyl}-6-(prop-1-yn-1-yl)thieno[2,3-d]pyrimidin-4-yl]oxy}-3-(2-{[2-(3-methylpyridin-4-yl)pyrimidin-4-yl]methoxy}phenyl)propanoic acid]
IC50 (Mcl-1 protein; [4]): 5.2e-09 M | PARP fold [1]: 411 fold | IC50 [2]: 0.003 µM

CC#Cc1sc2ncnc(OC(Cc3ccccc3OCc3ccnc(N4CCOCC4)n3)C(=O)O)c2c1-c1ccc(OCCN2CCN(C)CC2)c(Cl)c1C [Example 485, (2R)-2-{[(5Sa)-5-{3-chloro-2-methyl-4-[2-(4-methylpiperazin-1-yl)ethoxy]phenyl}-6-(prop-1-yn-1-yl)thieno[2,3-d]pyrimidin-4-yl]oxy}-3-(2-{[2-(morpholin-4-yl)pyrimidin-4-yl]methoxy}phenyl)propanoic acid]
IC50 (Mcl-1 protein; [4]): 4.3e-09 M | PARP fold [1]: 110.8 fold | IC50 ([2]; Homo sapiens, NCI-H929, 48 h): 0.012 µM

CC#Cc1sc2ncnc(OC(Cc3ccccc3OCc3ccnc(OCC(F)(F)F)n3)C(=O)O)c2c1-c1ccc(OCCN2CCN(C)CC2)c(Cl)c1C [Example 487, (2R)-2-{[(5Sa)-5-{3-chloro-2-methyl-4-[2-(4-methylpiperazin-1-yl)ethoxy]phenyl}-6-(prop-1-yn-1-yl)thieno[2,3-d]pyrimidin-4-yl]oxy}-3-(2-{[2-(2,2,2-trifluoroethoxy)pyrimidin-4-yl]methoxy}phenyl)propanoic acid]
IC50 (Mcl-1 protein; [4]): 6.5e-09 M | PARP fold [1]: 141.4 fold | IC50 ([2]; Homo sapiens, NCI-H929, 48 h): 0.004 µM

CC#Cc1sc2ncnc(OC(Cc3ccccc3OCc3ccnn3C(C)(C)C)C(=O)O)c2c1-c1ccc(OCCN2CCN(C)CC2)c(Cl)c1C [Example 488, (2R)-3-{2-[(1-tert-butyl-1H-pyrazol-5-yl)methoxy]phenyl}-2-{[(5Sa)-5-{3-chloro-2-methyl-4-[2-(4-methylpiperazin-1-yl)ethoxy]phenyl}-6-(prop-1-yn-1-yl)thieno[2,3-d]pyrimidin-4-yl]oxy}propanoic acid]
IC50 (Mcl-1 protein; [4]): 5.4e-09 M | PARP fold [1]: 175.5 fold | IC50 ([2]; Homo sapiens, NCI-H929, 48 h): 0.014 µM

CC#Cc1sc2ncnc(OC(Cc3ccccc3OCc3ccnn3CC(F)(F)F)C(=O)O)c2c1-c1ccc(OCCN2CCN(C)CC2)c(Cl)c1C [Example 489, (2R)-2-{[(5Sa)-5-{3-chloro-2-methyl-4-[2-(4-methylpiperazin-1-yl)ethoxy]phenyl}-6-(prop-1-yn-1-yl)thieno[2,3-d]pyrimidin-4-yl]oxy}-3-(2-{[1-(2,2,2-trifluoroethyl)-1H-pyrazol-5-yl]methoxy}phenyl)propanoic acid]
IC50 (Mcl-1 protein; [4]): 1.2e-09 M | PARP fold [1]: 233.2 fold | IC50 ([2]; Homo sapiens, NCI-H929, 48 h): 0.026 µM
